Test results: patent publication US10227323B2, “Glucosylceramide synthase inhibitors for the treatment of diseases” (BIOMARIN PHARMACEUTICAL INC., priority 2013, dated 2019)

target: T1, GCS (Canis lupus familiaris, UniProt A0A8I3MXG6); experiment: Assay 1: GCS Enzymatic Assay (MDCK cell lysate, C6-NBD-Ceramide, LC/MS); type: biochemical, canine; conditions: Table 2; data marked by *
T1 sequence (A0A8I3MXG6 1-394): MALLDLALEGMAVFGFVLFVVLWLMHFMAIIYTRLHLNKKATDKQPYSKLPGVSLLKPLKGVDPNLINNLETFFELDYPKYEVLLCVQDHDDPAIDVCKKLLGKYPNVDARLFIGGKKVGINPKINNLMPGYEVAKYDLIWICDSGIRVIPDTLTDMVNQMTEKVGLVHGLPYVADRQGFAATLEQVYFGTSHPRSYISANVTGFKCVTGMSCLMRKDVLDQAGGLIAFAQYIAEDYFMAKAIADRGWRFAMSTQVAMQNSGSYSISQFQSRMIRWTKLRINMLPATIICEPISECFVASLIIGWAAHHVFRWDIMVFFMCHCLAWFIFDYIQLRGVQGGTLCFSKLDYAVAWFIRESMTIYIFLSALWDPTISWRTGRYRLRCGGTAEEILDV
Method in brief: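 LC/MS/MS measurement of glucosylceramide and NBD-ceramide after a 1 h, 37 °C reaction with 100 μM UDP-glucose and 10 μM C6-NBD-ceramide gave IC50s or percent inhibition.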

SMILES | % inhibition generated from Assay 1
CC1(C)CCc2cc([C@@H](O)[C@@H](CN3CCCC3)NC(=O)C(F)(F)c3cc4cc(Cl)ccc4o3)ccc2O1 [Compound 119, 2-(5-chlorobenzofuran-2-yl)-N-((1R,2R)-1-(2,2-dimethylchroman-6-yl)-1-hydroxy-3-(pyrrolidin-1-yl)propan-2-yl)-2,2-difluoroacetamide] | A* (the compound had a % inhibition of a percent inhibition of greater than or equal to about 50%)
O=C(N[C@H](CN1CCCC1)[C@H](O)c1ccc(OC2CC2)nc1)C(F)(F)CCc1ccc2ccccc2c1 [Compound 120, N-((1R,2R)-1-(6-cyclopropoxypyridin-3-yl)-1-hydroxy-3-(pyrrolidin-1-yl)propan-2-yl)-2,2-difluoro-4-(naphthalen-2-yl)butanamide] | A* (the compound had a % inhibition of a percent inhibition of greater than or equal to about 50%)
CN1CCC(Oc2ccc([C@@H](O)[C@@H](CN3CCCC3)NC(=O)C(F)(F)CCc3ccc4ccccc4c3)cc2Cl)CC1 [Compound 121, N-((1R,2R)-1-(3-chloro-4-((l-methylpiperidin-4-yl)oxy)phenyl)-1-hydroxy-3-(pyrrolidin-1-yl)propan-2-yl)-2,2-difluoro-4-(naphthalen-2-yl)butanamide] | B* (the compound had a % inhibition of greater than or equal to about 3% but less than about 50%)
O=C(N[C@H](CN1CCC1)[C@H](O)c1ccc(OC2CC2)c(Cl)c1)C(=O)c1cc2cc(Cl)ccc2o1 [Compound 122, N-((1R,2R)-3-(azetidin-1-yl)-1-(3-chloro-4-cyclopropoxyphenyl)-1-hydroxypropan-2-yl)-2-(5-chlorobenzofuran-2-yl)-2-oxoacetamide] | A* (the compound had a % inhibition of a percent inhibition of greater than or equal to about 50%)
CN1CCC(Oc2ccc([C@@H](O)[C@@H](CN3CCCC3)NC(=O)C(F)(F)c3cc4cc(Cl)ccc4o3)cc2Cl)CC1 [Compound 123, N-((1R,2R)-1-(3-chloro-4-((l-methylpiperidin-4-yl)oxy)phenyl)-1-hydroxy-3-(pyrrolidin-1-yl)propan-2-yl)-2-(5-chlorobenzofuran-2-yl)-2,2-difluoroacetamide] | A* (the compound had a % inhibition of a percent inhibition of greater than or equal to about 50%)
O=C(N[C@H](CN1CCCC1)[C@H](O)c1ccc(OCCN2CCC2)c(Cl)c1)C(F)(F)CCc1ccc2ccccc2c1 [Compound 131, N-((1R,2R)-1-(4-(2-(azetidin-1-yl)ethoxy)-3-chlorophenyl)-1-hydroxy-3-(pyrrolidin-1-yl)propan-2-yl)-2,2-difluoro-4-(naphthalen-2-yl)butanamide] | A* (the compound had a % inhibition of a percent inhibition of greater than or equal to about 50%)
O=C(N[C@H](CN1CCC1)[C@H](O)c1ccc(OC2CC2)c(Cl)c1)C(F)(F)CCc1ccc2cc(F)ccc2c1 [Compound 134, N-((1R,2R)-3-(azetidin-1-yl)-1-(3-chloro-4-cyclopropoxyphenyl)-1-hydroxypropan-2-yl)-2,2-difluoro-4-(6-fluoronaphthalen-2-yl)butanamide] | A* (the compound had a % inhibition of a percent inhibition of greater than or equal to about 50%)
O=C(N[C@H](CN1CCC1)[C@H](O)c1ccc(OC2CC2)c(Cl)c1)/C(CCc1ccc2cc(F)ccc2c1)=N/O [Compound 137, (E)-N-((1R,2R)-3-(azetidin-1-yl)-1-(3-chloro-4-cyclopropoxyphenyl)-1-hydroxypropan-2-yl)-4-(6-fluoronaphthalen-2-yl)-2-(hydroxyimino)butanamide] | B* (the compound had a % inhibition of greater than or equal to about 3% but less than about 50%)
O=C(N[C@H](CN1CCCC1)[C@H](O)c1ccc(OC2CC2)c(Cl)c1)C(F)(F)c1ccc2cc(Cl)ccc2c1 [Compound 139, N-((1R,2R)-1-(3-chloro-4-cyclopropoxyphenyl)-1-hydroxy-3-(pyrrolidin-1-yl)propan-2-yl)-2-(6-chloronaphthalen-2-yl)-2,2-difluoroacetamide] | A* (the compound had a % inhibition of a percent inhibition of greater than or equal to about 50%)

same assay, conditions: Table 2; data without asterisk; read-out: IC50 (nM) generated from Assay 1

IC50 [nM] | SMILES
< 50 | O=C(N[C@H](CN1CCCC1)[C@H](O)c1ccc(OC2CC2)c(F)c1)C(F)(F)CCc1ccc2ccccc2c1 [Compound 125, N-((1R,2R)-1-(4-cyclopropoxy-3-fluorophenyl)-1-hydroxy-3-(pyrrolidin-1-yl)propan-2-yl)-2,2-difluoro-4-(naphthalen-2-yl)butanamide]
< 50 | O=C(N[C@H](CN1CCCC1)[C@H](O)c1ccc(OC2CC2)c(F)c1)C(F)(F)c1cc2cc(Cl)ccc2o1 [Compound 126, 2-(5-chlorobenzofuran-2-yl)-N-((1R,2R)-1-(4-cyclopropoxy-3-fluorophenyl)-1-hydroxy-3-(pyrrolidin-1-yl)propan-2-yl)-2,2-difluoroacetamide]
50 to 5000 | O=C(N[C@H](CN1CCCC1)[C@H](O)c1ccc(N2CCOCC2)c(Cl)c1)C(F)(F)c1cc2cc(Cl)ccc2o1 [Compound 127, N-((1R,2R)-1-(3-chloro-4-morpholinophenyl)-1-hydroxy-3-(pyrrolidin-1-yl)propan-2-yl)-2-(5-chlorobenzofuran-2-yl)-2,2-difluoroacetamide]
< 50 | O=C(N[C@H](CN1CCCC1)[C@H](O)c1ccc(OCCN2CCC2)c(Cl)c1)C(F)(F)c1cc2cc(Cl)ccc2o1 [Compound 128, N-((1R,2R)-1-(4-(2-(azetidin-1-yl)ethoxy)-3-chlorophenyl)-1-hydroxy-3-(pyrrolidin-1-yl)propan-2-yl)-2-(5-chlorobenzofuran-2-yl)-2,2-difluoroacetamide]
< 50 | O=C(N[C@H](CN1CCCC1)[C@H](O)c1ccc(OC2COC2)c(Cl)c1)C(F)(F)CCc1ccc2ccccc2c1 [Compound 129, N-((1R,2R)-1-(3-chloro-4-(oxetan-3-yloxy)phenyl)-1-hydroxy-3-(pyrrolidin-1-yl)propan-2-yl)-2,2-difluoro-4-(naphthalen-2-yl)butanamide]
< 50 | O=C(N[C@H](CN1CCCC1)[C@H](O)c1ccc(OC2COC2)c(Cl)c1)C(F)(F)c1cc2cc(Cl)ccc2o1 [Compound 130, N-((1R,2R)-1-(3-chloro-4-(oxetan-3-yloxy)phenyl)-1-hydroxy-3-(pyrrolidin-1-yl)propan-2-yl)-2-(5-chlorobenzofuran-2-yl)-2,2-difluoroacetamide]
< 50 | O=C(N[C@H](CN1CCCC1)[C@H](O)c1ccc2c(c1)OCCO2)C(F)(F)c1ccc2cc(Cl)ccc2c1 [Compound 132, 2-(6-chloronaphthalen-2-yl)-N-((1R,2R)-1-(2,3-dihydrobenzo[b][1,4]dioxin-6-yl)-1-hydroxy-3-(pyrrolidin-1-yl)propan-2-yl)-2,2-difluoroacetamide]
< 50 | O=C(N[C@H](CN1CCCC1)[C@H](O)c1cc(F)c2c(c1)OCCO2)C(=O)c1ccc(-c2ccc(F)cc2)cc1 [Compound 133, N-((1R,2R)-1-(8-fluoro-2,3-dihydrobenzo[b][1,4]dioxin-6-yl)-1-hydroxy-3-(pyrrolidin-1-yl)propan-2-yl)-2-(4′-fluoro-[1,1′-biphenyl]-4-yl)-2-oxoacetamide]
< 50 | O=C(N[C@H](CN1CCCC1)[C@H](O)c1cc(F)c2c(c1)OCCO2)C(F)(F)c1ccc2cc(Cl)ccc2c1 [Compound 135, 2-(6-chloronaphthalen-2-yl)-2,2-difluoro-N-((1R,2R)-1-(8-fluoro-2,3-dihydrobenzo[b][1,4]dioxin-6-yl)-1-hydroxy-3-(pyrrolidin-1-yl)propan-2-yl)acetamide]
< 50 | O=C(N[C@H](CN1CCCC1)[C@H](O)c1ccc(OC2CC2)c(Cl)c1)/C(=N/O)c1cc2cc(Cl)ccc2o1 [Compound 136, (E)-N-((1R,2R)-1-(3-chloro-4-cyclopropoxyphenyl)-1-hydroxy-3-(pyrrolidin-1-yl)propan-2-yl)-2-(5-chlorobenzofuran-2-yl)-2-(hydroxyimino)acetamide]
< 50 | O=C(N[C@H](CN1CCCC1)[C@H](O)c1cc(F)c2c(c1)OCCO2)/C(=N/O)c1ccc(-c2ccc(F)cc2)cc1 [Compound 138, (E)-N-((1R,2R)-1-(8-fluoro-2,3-dihydrobenzo[b][1,4]dioxin-6-yl)-1-hydroxy-3-(pyrrolidin-1-yl)propan-2-yl)-2-(4′-fluoro-[1,1′-biphenyl]-4-yl)-2-(hydroxyimino)acetamide]
< 50 | O=C(N[C@H](CN1CCCC1)[C@H](O)c1cc(F)c2c(c1)OCCO2)C(F)(F)c1ccc(-c2ccc(F)cc2)cc1 [Compound 140, 2,2-difluoro-N-((1R,2R)-1-(8-fluoro-2,3-dihydrobenzo[b][1,4]dioxin-6-yl)-1-hydroxy-3-(pyrrolidin-1-yl)propan-2-yl)-2-(4′-fluoro-[1,1′-biphenyl]-4-yl)acetamide]
< 50 | O=C(N[C@H](CN1CCC1)[C@H](O)c1cc(F)c2c(c1)OCCO2)/C(CCc1ccc2ccccc2c1)=N/O [Compound 141, (E)-N-((1R,2R)-3-(azetidin-1-yl)-1-(8-fluoro-2,3-dihydrobenzo[b][1,4]dioxin-6-yl)-1-hydroxypropan-2-yl)-2-(hydroxyimino)-4-(naphthalen-2-yl)butanamide]
< 50 | O=C(N[C@H](CN1CCCC1)[C@H](O)c1ccc(OC2CC2)c(Cl)c1)/C(CCc1ccc2ccccc2c1)=N/O [Compound 142, (E)-N-((1R,2R)-1-(3-chloro-4-cyclopropoxyphenyl)-1-hydroxy-3-(pyrrolidin-1-yl)propan-2-yl)-2-(hydroxyimino)-4-(naphthalen-2-yl)butanamide]
